The values that follow come from patent US11447469B2, “Hetero ring-fused phenyl compounds for inhibiting TNIK and medical uses thereof” (Korea Research Institute of Chemical Technology, priority 2018, dated 2022).

By IC50 is commonly meant the point on the concentration scale where inhibition reaches its midpoint. A higher IC50 goes with lower potency. In general, inhibition refers to the drop in the measured response relative to a control, in per cent.

For experiment [1], the target named is T1, TNIK (Homo sapiens (Human), UniProt Q9UKE5). Description: In vitro TNIK kinase assay using qPCR (competition binding with liganded affinity beads). To be noted: compound at 1 μM; kinase in eluate measured by qPCR. On the procedure: 1. Efficacy of Inhibiting TNIK Activity, In Vitro TNIK Kinase Assay Using qPCR
For most assays, kinase-tagged T7 phage strains were grown in parallel in 24-well blocks in an E. coli host derived from the BL21 strain. E. coli were grown to log-phase and infected with T7 phage from a frozen stock (multiplicity of infection=0.4) and incubated with shaking at 32° C. until (90-150 minutes). The lysates were centrifuged (6,000×g) and filtered (0.2 μm) to remove cell debris. The remaining kinases were produced in HEK-293 cells and subsequently tagged with DNA for qPCR detection. Streptavidin-coated magnetic beads were treated with biotinylated small molecule ligands for 30 minutes at room temperature to generate affinity resins for kinase assays. The liganded beads were blocked with excess biotin and washed with blocking buffer (SeaBlock (Pierce), 1% BSA, 0.05% Tween 20, 1 mM DTT) to remove unbound ligand and to reduce non-specific phage binding. Binding reactions were assembled by combining kinases, liganded affinity beads, and test compounds in 1× binding buffer (20% SeaBlock, 0.17×PBS, 0.05% Tween 20, 6 mM DTT). Test compounds were prepared as 40× stocks in 100% DMSO and directly diluted into the assay. All reactions were performed in polypropylene 384-well plates in a final volume of 0.04 ml.
The assay plates were incubated at room temperature with shaking for 1 hour and the affinity beads were washed with wash buffer (1×PBS, 0.05% Tween 20). The beads were then re-suspended in elution buffer (1×PBS, 0.05% Tween 20, 0.5 μM non-biotinylated affinity ligand) and incubated at room temperature with shaking for 30 minutes. The kinase concentration in the eluates was measured by qPCR.
Background: In qPCR the cycle at which signal appears reflects the starting amount.

Experiment [2] addresses T1, TNIK. Description: In vitro TNIK kinase assay using ADP-Glo Kinase Assay system. In kind it is biochemical. To be noted: 100 μM ATP, MBP substrate; for IC50: 37° C. 30 min; for inhibition at 1 µM: compound at 1 μM. On the procedure:
2. Efficacy of Inhibiting TNIK Activity, In Vitro TNIK Kinase Assay Using ADP-Glo™ Kinase Assay System
The inhibitory properties of compounds were evaluated with TNIK kinase enzyme system and luminescent ADP-Glo ? Kinase Assay from Promega Corporation according to the manufacturer's protocol. The tested compounds were incubated with TNIK kinases. Reactions were performed in 10 μl kinase buffer supplemented with reaction mixture containing 2 μl ATP, 2 μl MBP protein and 2 μl TNIK at 37° C. for 30 min. After kinase reaction, 5 μl reaction mixtures were transferred to 384 well assay plate (Greiner, solid white low-binding plates). Next, 5 μl of ADP-Glo Reagent was added to each well and incubated at 37° C. for 30 min. After 45 min, 10 μl Kinase Detection Reagent was added to each well and luminescence signal was detected with the SpectraMax M5e Microplate Reader (Molecular Devices, Menlo Park, Calif.) after 30 min at 37° C. incubation. The IC50 values were calculated using GraphPad Prism software (GraphPad Software Inc., La Jolla, Calif., USA) to determine kit performance. To the cut-off assay, the inhibitory activity of the compounds against TNIK kinase was expressed as the percentage of the kinase inhibitory activity for an indicated concentration of inhibitor. The IC s of the compounds against TNIK kinase values were calculated a log-concentration-response curve fitted with a four-parameter logistic equation and expressed dose-response curve for % of inhibitory activity versus log of the compound concentration.

Experiment [3] deals with SW620 cells. As to the kind of experiment: Cell viability assay (CCK-8) using SW620 cell. It is filed as cell-based. To be noted: Homo sapiens, SW-620, 48 h exposure. The method, then: (§1) 3. Efficacy of Inhibiting Cancer Cells Using Colon Cancer Cell Lines
(§2) The human colon cancer cell line SW480 (Catalog No. CCL-228) and SW620 (Catalog No. CCL-227) were obtained from the American Type Culture Collection (ATCC), and maintained in DMEM (Thermo Fisher Scientific Inc., Waltham, Mass., USA) supplemented with 10% fetal bovine serum (FBS) (Thermo Fisher Scientific Inc., Waltham, Mass.), 100 U/ml penicillin, and 100 µg/ml streptomycin (Gibco, Gaithersburg, Md.). Cells were grown at 37° C. in 5% CO2 for confluence.
(§3) Cell viability was measured using the Cell Counting Kit-8 (Dojindo Molecular Technologies). SW480 and SW620 cells (2.5×10^4 cells/well) were seeded in 96-well plates and incubated for 24 h. After incubation, the cells were exposed to serially diluted compounds (0.1, 0.3, 1, 3, 10 and 30 µM) in 100 μl phenol free DMEM medium containing 0.1% FBS. After 48 h, CCK-8 reagent was added at 10 μl per well and incubated for 1 h at 37° C. Optical density was measured at 450 nm using a microplate reader (Bio-Rad Laboratories, Hercules, Calif.). The IC50 values were calculated using GraphPad Prism software (GraphPad Software Inc., La Jolla, Calif., USA) to determine kit performance. Experiments were performed in triplicate.

The test system of experiment [4] is SW480 cells. Description: Cell viability assay (CCK-8) using SW480 cell. In kind it is cell-based. To be noted: Homo sapiens, 48 h exposure. On the procedure: as §1, §2, §3

T1 sequence (Q9UKE5 whole entry): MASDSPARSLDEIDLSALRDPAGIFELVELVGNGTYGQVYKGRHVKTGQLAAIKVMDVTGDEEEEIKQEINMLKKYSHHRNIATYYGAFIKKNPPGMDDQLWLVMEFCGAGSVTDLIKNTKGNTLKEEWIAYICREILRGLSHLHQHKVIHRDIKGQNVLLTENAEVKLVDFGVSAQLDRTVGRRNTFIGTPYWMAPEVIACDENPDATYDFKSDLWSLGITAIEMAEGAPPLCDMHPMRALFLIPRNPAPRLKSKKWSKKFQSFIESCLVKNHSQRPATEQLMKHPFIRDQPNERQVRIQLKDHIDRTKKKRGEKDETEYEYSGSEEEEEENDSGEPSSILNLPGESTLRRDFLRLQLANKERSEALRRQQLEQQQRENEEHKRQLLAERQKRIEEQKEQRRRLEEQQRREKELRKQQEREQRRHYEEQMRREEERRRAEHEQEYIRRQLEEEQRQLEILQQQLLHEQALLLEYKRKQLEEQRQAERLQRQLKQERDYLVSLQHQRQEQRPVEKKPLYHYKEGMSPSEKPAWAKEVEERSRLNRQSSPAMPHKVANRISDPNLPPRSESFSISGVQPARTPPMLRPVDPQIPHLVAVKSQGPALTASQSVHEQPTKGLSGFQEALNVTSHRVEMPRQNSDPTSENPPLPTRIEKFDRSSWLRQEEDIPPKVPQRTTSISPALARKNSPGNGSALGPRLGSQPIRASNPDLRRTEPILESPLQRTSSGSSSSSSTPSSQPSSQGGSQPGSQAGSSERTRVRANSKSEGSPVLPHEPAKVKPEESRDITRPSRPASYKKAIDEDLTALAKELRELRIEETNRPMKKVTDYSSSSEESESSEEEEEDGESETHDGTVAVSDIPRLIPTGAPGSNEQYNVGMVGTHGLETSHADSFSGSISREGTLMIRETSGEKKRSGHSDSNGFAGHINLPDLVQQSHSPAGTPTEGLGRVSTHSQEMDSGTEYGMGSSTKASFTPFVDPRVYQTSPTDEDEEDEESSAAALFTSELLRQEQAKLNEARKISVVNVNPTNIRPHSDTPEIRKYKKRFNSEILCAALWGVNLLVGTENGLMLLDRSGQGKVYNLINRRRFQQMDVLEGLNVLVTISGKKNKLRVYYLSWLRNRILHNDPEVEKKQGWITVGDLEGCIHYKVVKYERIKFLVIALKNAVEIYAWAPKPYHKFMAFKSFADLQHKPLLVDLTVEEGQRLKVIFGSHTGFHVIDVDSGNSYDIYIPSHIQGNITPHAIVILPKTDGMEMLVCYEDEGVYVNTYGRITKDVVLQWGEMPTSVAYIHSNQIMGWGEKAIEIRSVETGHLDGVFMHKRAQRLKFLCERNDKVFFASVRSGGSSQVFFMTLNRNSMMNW

For the molecule `COc1ccc(-c2cc(Nc3ccc4[nH]ccc4c3)n[nH]2)cc1` [Compound 1, N-(5-(4-methoxyphenyl)-1H-pyrazol-3-yl)-1H-indol-5-amine], in experiment [1], the activity at 1 µM amounted to 16%.
As to `O=C1CCc2cc(Nc3cc(-c4ccc(-n5ccnc5)cc4)[nH]n3)ccc2N1` [Compound 9, 6-((5-(4-(1H-imidazol-1-yl)phenyl)-1H-pyrazol-3-yl)amino)-3,4-dihydroquinolin-2(1H)-one], in experiment [2], inhibition was half-maximal at 1 nM (IC50) and at 1 µM the inhibition was 98%.
With `Cc1nc2cc(Nc3cc(-c4ccc(-n5cccn5)cc4)[nH]n3)ccc2[nH]1` [Compound 18, N-(5-(4-(1H-pyrazol-1-yl)phenyl)-1H-pyrazol-3-yl)-2-methyl-1H-benzo[d]imidazol-5-amine], the IC50 in experiment [2] stood at 96 nM; in experiment [3], 3.4 µM; in experiment [4], 21 µM. In experiment [2], this molecule returned an inhibition at 1 µM of 99%.
`O=C1COc2cc(Nc3cc(-c4ccc(O)cc4)[nH]n3)ccc2N1` [Compound 14, 7-((5-(4-hydroxyphenyl)-1H-pyrazol-3-yl)amino)-2H-benzo[b][1,4]oxazin-3(4H)-one] had an inhibition at 1 µM in experiment [2] of 97%.
On to `O=C1Cc2cc(Nc3cc(-c4ccc(O)c(F)c4)[nH]n3)ccc2N1` [Compound 8, 5-((5-(3-fluoro-4-hydroxyphenyl)-1H-pyrazol-3-yl)amino)indolin-2-one], for which, in experiment [2], the IC50 was found to be 1 nM and the inhibition at 1 µM came out at 88%.
In experiment [2], `O=C1CCc2cc(Nc3cc(-c4ccc(O)cc4)[nH]n3)ccc2N1` [Compound 6, 6-((5-(4-hydroxyphenyl)-1H-pyrazol-3-yl)amino)-3,4-dihydroquinolin-2(1H)-one] came in with an IC50 of 62 nM and an inhibition at 1 µM of 96%.
In experiment [2], `Oc1ccc(-c2cc(Nc3ccc4[nH]ncc4c3)n[nH]2)cc1` [Compound 11, 4-(3-((1H-indazol-5-yl)amino)-1H-pyrazol-5-yl)phenol] came in with an IC50 of 29 nM and an inhibition at 1 µM of 94%.
Take `COc1ccc(-c2cc(Nc3ccc4cn[nH]c4c3)n[nH]2)cc1` [Compound 4, N-(5-(4-methoxyphenyl)-1H-pyrazol-3-yl)-1H-indazol-6-amine]: the activity at 1 µM in experiment [1] was 8%.
In experiment [2], `c1cnn(-c2ccc(-c3cc(Nc4ccc5[nH]ncc5c4)n[nH]3)cc2)c1` [Compound 10, N-(5-(4-(1H-pyrazol-1-yl)phenyl)-1H-pyrazol-3-yl)-1H-indazol-5-amine] displayed an IC50 of 55 nM and an inhibition at 1 µM of 99%.
The molecule `COc1ccc(-c2cc(Nc3ccc4[nH]c(=O)[nH]c4c3)n[nH]2)cc1` [Compound 3, 5-((5-(4-methoxyphenyl)-1H-pyrazol-3-yl)amino)-1,3-dihydro-2H-benzo[d]imidazol-2-one] gave an activity at 1 µM in experiment [1] of 7%. This molecule registered an inhibition at 1 µM in experiment [2] of 79%.
Consider `O=C1CCc2cc(Nc3cc(-c4ccc(-n5cccn5)cc4)[nH]n3)ccc2N1` [Compound 7, 6-((5-(4-(1H-pyrazol-1-yl)phenyl)-1H-pyrazol-3-yl)amino)-3,4-dihydroquinolin-2(1H)-one], for which the IC50 in experiment [2] turned out to be 1 nM.
As for `O=C1COc2cc(Nc3cc(-c4ccc(-n5cccn5)cc4)[nH]n3)ccc2N1` [Compound 13, 7-((5-(4-(1H-pyrazol-1-yl)phenyl)-1H-pyrazol-3-yl)amino)-2H-benzo[b][1,4]oxazin-3(4H)-one], in experiment [2], the IC50 turned out to be 7 nM and the inhibition at 1 µM was found to be 90%.
As to `Oc1ccc(-c2cc(Nc3ccc4[nH]ncc4c3)n[nH]2)cc1F` [Compound 12, 4-(3-((1H-indazol-5-yl)amino)-1H-pyrazol-5-yl)-2-fluorophenol], in experiment [2], the half-inhibitory concentration (IC50) stood at 45 nM and the inhibition at 1 µM came to 93%. Also, in experiment [3], the concentration for half-maximal inhibition (IC50) stood at 13 µM.
In experiment [1], `COc1ccc(-c2cc(Nc3ccc4[nH]ncc4c3)n[nH]2)cc1` [Compound 2, N-(5-(4-methoxyphenyl)-1H-pyrazol-3-yl)-1H-indazol-5-amine] had an activity at 1 µM of 21%. Also, the IC50 was 94 nM in experiment [2], 1.2 µM in experiment [3] and 4.5 µM in experiment [4]. For the same molecule, the inhibition at 1 µM in experiment [2] worked out at 99%.
